Key:
[1] = target: T1, Recombinant STAT3 protein (STAT3(G127-I722)) (Homo sapiens, UniProt P40763); experiment: STAT3 Fluorescence Polarization (FP) Assay; type: binding; conditions: STAT3(G127-I722) 25 nM, probe 5-FAM-GpYLPQTV-NH2 2 nM, 45-minute incubation
T1 construct: Recombinant STAT3 protein (STAT3(G127-I722))
Procedure, shortened: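 STAT3(G127-I722), 25 nM, was mixed with 2 nM 5-FAM-GpYLPQTV-NH2 probe in HEPES pH 7.4 buffer with 1% DMSO and serially diluted compound. FP (mP) was read after 45 min at room temperature. IC50 came from nonlinear regression.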

[2] = target: T2, Recombinant STAT6 protein (STAT6(W123-T658)) (Homo sapiens, UniProt P42226); experiment: STAT6 Fluorescence Polarization (FP) Assay; type: binding; conditions: STAT6(W123-T658) 250 nM, probe 5-FAM-ApYKPFQDLI-NH2 2 nM, 45-minute incubation
T2 construct: Recombinant STAT6 protein (STAT6(W123-T658))
T2 sequence (P42226 123-658): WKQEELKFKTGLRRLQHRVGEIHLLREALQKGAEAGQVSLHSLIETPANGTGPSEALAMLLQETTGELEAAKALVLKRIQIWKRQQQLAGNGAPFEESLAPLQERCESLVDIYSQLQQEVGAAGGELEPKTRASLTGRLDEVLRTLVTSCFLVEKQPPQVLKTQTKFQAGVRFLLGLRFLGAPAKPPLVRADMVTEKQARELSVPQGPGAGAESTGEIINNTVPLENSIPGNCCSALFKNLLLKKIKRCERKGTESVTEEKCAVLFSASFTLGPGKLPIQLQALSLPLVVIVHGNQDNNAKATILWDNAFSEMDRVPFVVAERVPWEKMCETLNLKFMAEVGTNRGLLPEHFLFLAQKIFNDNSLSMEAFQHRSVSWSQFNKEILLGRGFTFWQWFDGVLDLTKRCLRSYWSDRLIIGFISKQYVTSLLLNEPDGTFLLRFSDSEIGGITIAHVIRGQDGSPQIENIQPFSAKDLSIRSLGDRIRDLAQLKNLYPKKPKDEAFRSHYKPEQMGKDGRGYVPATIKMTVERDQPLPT
Procedure, shortened: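 Displacement of a fluorescent phosphotyrosine peptide (5-FAM-ApYKPFQDLI-NH2, 2 nM) from STAT6(W123-T658) (250 nM), 1% DMSO, pH 7.4 HEPES buffer. After 45 min at room temperature, polarization (mP) was plotted versus log compound concentration and fitted by nonlinear regression to give IC50.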

T1 sequence (P40763 127-722): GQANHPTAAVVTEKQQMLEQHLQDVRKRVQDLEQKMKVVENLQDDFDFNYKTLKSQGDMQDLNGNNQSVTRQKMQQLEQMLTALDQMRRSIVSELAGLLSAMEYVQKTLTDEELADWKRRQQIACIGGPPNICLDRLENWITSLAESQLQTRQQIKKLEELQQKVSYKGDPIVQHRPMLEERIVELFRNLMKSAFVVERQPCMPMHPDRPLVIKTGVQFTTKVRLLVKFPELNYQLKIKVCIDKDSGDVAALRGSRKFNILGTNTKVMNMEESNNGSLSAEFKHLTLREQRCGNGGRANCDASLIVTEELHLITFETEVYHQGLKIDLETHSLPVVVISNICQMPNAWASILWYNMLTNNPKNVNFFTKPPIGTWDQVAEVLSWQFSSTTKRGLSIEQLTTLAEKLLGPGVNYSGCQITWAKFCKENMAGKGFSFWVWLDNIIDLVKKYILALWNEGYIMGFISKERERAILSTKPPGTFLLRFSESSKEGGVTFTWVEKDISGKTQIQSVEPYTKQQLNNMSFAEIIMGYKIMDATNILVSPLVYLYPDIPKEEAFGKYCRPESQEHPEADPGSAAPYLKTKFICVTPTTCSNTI

| SMILES | IC50 [1] [µM] | IC50 [2] [nM] |
| --- | --- | --- |
| Cc1ccc2onc(C(=O)N3CC[C@H]4CC[C@@H](C(=O)N5C[C@@H](c6ccn(C)c(=O)c6)CC56CC6)N4C(=O)[C@@H](NC(=O)c4ccc5ccc(C(F)(F)P(=O)(O)O)cc5c4)C3)c2c1 [Compound 383, (difluoro(7-(((5S,8S, 10aR)-8-((R)-6-(1-methyl-2-oxo-1,2-dihydropyridin-4-yl)-4-azaspiro[2.4]heptane-4-carbonyl)-3-(5-methylbenzo[d]isoxazole-3-carbonyl)-6-oxodecahydropyrrolo [1,2-a][1,5]diazocin-5-yl)carbamoyl)naphthalen-2-yl)methyl)phosphonic acid] | 1 to 10 | ≤ 300 |
| Cc1ccc2onc(C(=O)N3CC[C@H]4CC[C@@H](C(=O)N5CCOCC5)N4C(=O)[C@@H](NC(=O)c4ccc5c(C#N)cc(CP(=O)(O)O)cc5c4)C3)c2c1 [Compound 384, ((4-cyano-7-(((5S,8S, 10aR)-3-(5-methylbenzo[d]isoxazole-3-carbonyl)-8-(morpholine-4-carbonyl)-6-oxodecahydropyrrolo [1,2-a][1,5]diazocin-5-yl)carbamoyl)naphthalen-2-yl)methyl) phosphonic acid] | > 10 | 300 to 3000 |
| Cc1ccc2onc(C(=O)N3CC[C@H]4CC[C@@H](C(=O)N5C[C@@H](c6cc[nH]c(=O)c6)CC56CC6)N4C(=O)[C@@H](NC(=O)c4ccc5ccc(C(F)(F)P(=O)(O)O)cc5c4)C3)c2c1 [Compound 385, (difluoro(7-(((5S,8S, 10aR)-3-(5-methyl-benzo[d]isoxazole-3-carbonyl)-6-oxo-8-((R)-6-(2-oxo-1,2-dihydro-pyridin-4-yl)-4-azaspiro [2.4]heptane-4-carbonyl)decahydro-pyrrolo[1,2-a][1,5]diazocin-5-yl)carbamoyl)naphthalen-2-yl)methyl) phosphonic acid] | 1 to 10 | ≤ 300 |
| Cc1ccc2onc(C(=O)N3CC[C@H]4CC[C@@H](C(=O)N5C(=O)N(c6cccnc6)C(=O)C56CC6)N4C(=O)[C@@H](NC(=O)c4ccc5ccc([C@H](F)P(=O)(O)O)cc5c4)C3)c2c1 [Compound 386, ((R)-(7-(((5S,8S, 10aR)-8-(5,7-dioxo-6-(pyridin-3-yl)-4,6-diazaspiro[2.4]heptane-4-carbonyl)-3-(5-methylbenzo[d]isoxazole-3-carbonyl)-6-oxodecahydropyrrolo [1,2-a][1,5]diazocin-5-yl)carbamoyl)naphthalen-2-yl)fluoromethyl)phosphonic acid] | > 10 | ≤ 300 |
| Cc1ccc2onc(C(=O)N3CC[C@H]4CC[C@@H](C(=O)N5C[C@@H](c6ccn(C)c(=O)c6)CC56CC6)N4C(=O)[C@@H](NC(=O)c4ccc5ccc([C@H](F)P(=O)(O)O)cc5c4)C3)c2c1 [Compound 387, ((R)-fluoro(7-(((5S, 8S,10aR)-8-((R)-6-(1-methyl-2-oxo-1,2-dihydropyridin-4-yl)-4-azaspiro[2.4]heptane-4-carbonyl)-3-(5-methylbenzo[d]isoxazole-3-carbonyl)-6-oxodecahydro-pyrrolo[1,2-a][1,5]diazocin-5-yl)carbamoyl)naphthalen-2-yl)methyl) phosphonic acid] | > 10 | ≤ 300 |
| COc1cc(C(=O)N[C@H]2CN(C(=O)c3noc4ccc(C)cc34)CC[C@H]3CC[C@@H](C(=O)N4CCOCC4)N3C2=O)cc2cc(CP(=O)(O)O)ccc12 [Compound 388, ((5-methoxy-7-(((5S, 8S,10aR)-3-(5-methylbenzo[d]isoxazole-3-carbonyl)-8-(morpholine-4-carbonyl)-6-oxodecahydropyrrolo [1,2-a][1,5]diazocin-5-yl)carbamoyl)naphthalen-2-yl)methyl) phosphonic acid] | > 10 | 300 to 3000 |
| Cc1cc(Cl)cc(C(=O)N2CC[C@H](NC(=O)c3ccc4ccc(C(F)P(=O)(O)O)cc4c3)C(=O)N3[C@H](CC[C@H]3C(=O)N3CCOCC3)C2)c1 (stereo partly drawn) [Compound 389, ((7-(((5S,8S,10aR)-2-(3-chloro-5-methyl-benzoyl)-8-(morpholine-4-carbonyl)-6-oxodecahydropyrrolo [1,2-a][1,4]diazocin-5-yl)carbamoyl)naphthalen-2-yl)fluoromethyl) phosphonic acid] | > 10 | 300 to 3000 |
| Cc1ccc2onc(C(=O)N3CC[C@H]4CC[C@@H](C(=O)N5C[C@H](c6ccn(C)c(=O)c6)CC56CC6)N4C(=O)[C@@H](NC(=O)c4ccc5ccc([C@H](F)P(=O)(O)O)cc5c4)C3)c2c1 [Compound 390, ((R)-fluoro(7-(((5S, 8S,10aR)-8-((S)-6-(1-methyl-2-oxo-1,2-dihydropyridin-4-yl)-4-azaspiro[2.4]heptane-4-carbonyl)-3-(5-methylbenzo[d]isoxazole-3-carbonyl)-6-oxodecahydropyrrolo [1,2-a][1,5]diazocin-5-yl)carbamoyl)naphthalen-2-yl)methyl)phosphonic acid] | 1 to 10 | ≤ 300 |
| Cc1ccc2onc(C(=O)N3CC[C@H]4CC[C@@H](C(=O)N5C[C@H](c6ccn(C)c(=O)c6)CC56CC6)N4C(=O)[C@@H](NC(=O)c4ccc5ccc([C@@H](F)P(=O)(O)O)cc5c4)C3)c2c1 [Compound 391, ((S)-fluoro(7-(((5S, 8S,10aR)-8-((S)-6-(1-methyl-2-oxo-1,2-dihydropyridin-4-yl)-4-azaspiro[2.4]heptane-4-carbonyl)-3-(5-methylbenzo[d]isoxazole-3-carbonyl)-6-oxodecahydropyrrolo [1,2-a][1,5]diazocin-5-yl)carbamoyl)naphthalen-2-yl)methyl) phosphonic acid] | > 10 | ≤ 300 |
| O=C(N[C@H]1CN(c2cc3ccccc3cn2)CC[C@H]2CC[C@@H](C(=O)N3CCOCC3)N2C1=O)c1ccc2ccc(C(F)P(=O)(O)O)cc2c1 (stereo partly drawn) [Compound 392, (fluoro(7-(((5S,8S, 10aR)-3-(isoquinolin-3-yl)-8-(morpholine-4-carbonyl)-6-oxodecahydropyrrolo [1,2-a][1,5]diazocin-5-yl)carbamoyl)naphthalen-2-yl)methyl)phosphonic acid] | 1 to 10 | 3000 to 30000 |
| O=C(N[C@H]1CN(c2ccccn2)C[C@H]2CC[C@@H](C(=O)N3CCOCC3)N2C1=O)c1ccc2ccc(C(F)P(=O)(O)O)cc2c1 (stereo partly drawn) [Compound 393, (fluoro(7-(((4S,7S,9aR)-7-(morpholine-4-carbonyl)-5-oxo-2-(pyridin-2-yl)octahydro-1H-pyrrolo[1,2-a][1,4]diazepin-4-yl)carbamoyl)naphthalen-2-yl)methyl) phosphonic acid] | > 10 | > 30000 |
| Cc1ccc2onc(C(=O)N3CC[C@H]4CC[C@@H](C(=O)N5CCOCC5)N4C(=O)[C@@H](NC(=O)c4ccc5cnc(CP(=O)(O)O)cc5c4)C3)c2c1 [Compound 394, ((6-(((5S,8S,10aR)-3-(5-methylbenzo [d]isoxazole-3-carbonyl)-8-(morpholine-4-carbonyl)-6-oxodecahydropyrrolo [1,2-a][1,5]diazocin-5-yl)carbamoyl)isoquinolin-3-yl)methyl) phosphonic acid] | > 10 | 3000 to 30000 |
| N#C[C@@H]1CN(C(=O)[C@@H]2CC[C@@H]3CCN(CC(F)F)C[C@H](NC(=O)c4cc5cc(C(F)P(=O)(O)O)ccc5s4)C(=O)N32)C[C@H]1c1ccccc1 (stereo partly drawn) [Compound 395, ((2-(((5S,8S,10aR)-8-((3S,4R)-3-cyano-4-phenyl-pyrrolidine-1-carbonyl)-3-(2,2-difluoroethyl)-6-oxodecahydropyrrolo [1,2-a][1,5]diazocin-5-yl)carbamoyl)benzo[b]thiophen-5-yl)fluoromethyl) phosphonic acid] | 1 to 10 | ≤ 300 |
| Cc1ccc2onc(C(=O)N3CC[C@H]4CC[C@@H](C(=O)N5CCOCC5)N4C(=O)[C@@H](NC(=O)c4ccc5ccc(CP(=O)(O)O)nc5c4)C3)c2c1 [Compound 396, ((7-(((5S,8S,10aR)-3-(5-methylbenzo[d]isoxazole-3-carbonyl)-8-(morpholine-4-carbonyl)-6-oxodecahydropyrrolo [1,2-a][1,5]diazocin-5-yl)carbamoyl)quinolin-2-yl)methyl)phosphonic acid] | > 10 | 3000 to 30000 |
| Cc1ccc2onc(C(=O)N3CC[C@H]4CC[C@@H](C(=O)N5C[C@@H](C)O[C@@H](C)C5)N4C(=O)[C@@H](NC(=O)c4ccc5ccc(C(F)P(=O)(O)O)cc5c4)C3)c2c1 (stereo partly drawn) [Compound 397, ((7-(((5S,8S,10aR)-8-((2S,6R)-2,6-dimethylmorpholine-4-carbonyl)-3-(5-methylbenzo[d]isoxazole-3-carbonyl)-6-oxodecahydropyrrolo [1,2-a][1,5]diazocin-5-yl)carbamoyl)naphthalen-2-yl)fluoromethyl)phosphonic acid] | > 10 | ≤ 300 |

Reference: patent US20250179103A1, “6-OXODECAHYDROPYRROLO[1,2-A][1,5]DIAZOCINE AND 6-OXODECAHYDRO-4H-PYRROLO[2,1-D][1,5]THIAZOCINE DERIVATIVES AS STAT3 AND STAT6 MODULATORS FOR THE TREATMENT OF CANCER AND INFLAMMATORY CONDITIONS” (Recludix Pharma, Inc., priority 2022, published 2025)
